These are literature values, as cited in US20100209419A1, “Method and formulation for treating adverse biological conditions” (priority 2008, published 2010).

For the data set the following is noted: at 79° F.

Turning to `CS(C)(=O)=O` [MSM, methylsulfonylmethane], the water solubility is 34 % w/v.
